Results taken from patent publication US9439904B2, “Pyrimidine compounds and their use as gamma secretase modulators” (Acturum Life Science AB, priority 2013, dated 2016).

What was measured:
Aβ42 [1] = assay: PCN assay: Aβ42 secreted by primary cortical neuronal cells, ELISA; assay type: cell-based; details: primary cortical neuronal cells from 16-day mouse embryos; 16-20 hours incubation with test compound; read-out: pIC50 Aβ42 PCN assay (converted)
Method: Compounds were diluted in 100% DMSO and stored at […] prior to use. Primary cortical neuronal cells (PCN) were isolated from 16-day mouse embryos and cultured in Ham's F12 media containing 10% Foetal bovine serum, 10 mM Hepes, 2 mM L-glutamine and 100 U/mL Penicillin-Streptomycin. 150000-250000 cells/well, in 200 μL cell media were seeded onto 96-well poly-D-Lysine coated plates. After incubation at 37° C., 5% CO2 for five days, the media was exchanged for fresh medium containing test compound diluted ×100, before further incubation for 16-20 hours at 37° C. and 5% CO2. After incubation with test compound the amount of […] secreted to cell medium was analyzed using the solid phase sandwich Enzyme-Linked-Immuno-Sorbent Assay (ELISA)-kit from Invitrogen for detection of mouse βAmyloid 1-42. Potential cytotoxic effects of the compounds were assayed by measuring the ATP content (Via Light) from cell lysate.

Aβ42 [2] = assay: HEK assay: Aβ42 secreted to cell medium, Meso Scale Discovery electrochemiluminescence; assay type: cell-based; details: Homo sapiens, HEK293; HEK cell line stably expressing APPswe; 4-6 hours incubation with test compound; read-out: pIC50 Aβ42 HEK assay (converted)
Method: Compounds were diluted in 100% DMSO and stored at […] prior to use. Human Embryonic Kidney (HEK) cell line stably expressing APP with the Swedish mutation (APPswe) was cultured using Dulbecco's Modified Eagles medium (DMEM) supplied with […] glucose, Na-pyruvate and GlutaMAX, 10% Foetal bovine serum, 100 U/mL penicillin-streptomycin (PEST), 1× non-essential amino acids (NEAA), […] Hepes, 100 μg/mL Zeocine. Cells at about 80% confluence were washed with PBS, detached from culture flasks using 1× Trypsin/EDTA diluted in PBS, re-suspended in cell media and plated in 384-well poly-d-lysine coated cell culture plates at about 10000-15000 cells/well, in 25 μL cell media. Optionally, cryo-preserved cells (frozen and stored at −140° C. in 90% cell media and 10% DMSO) were thawed, washed and plated as above. Next the cells were incubated for 15-24 h at 37° C. and 5% CO2, after which cell medium was changed. Fresh medium containing test compound diluted ×200 from prepared compound plate was added to the cells before further incubation for 4-6 hours at 37° C. and 5% CO2. After incubation with test compound the amount of Aβ peptides, including Aβ42, Aβ40, Aβ39, Aβ38 and Aβ37, secreted to cell medium was analyzed using the electrochemiluminescence assay technology from Meso Scale Discovery Technology, in combination with specific antibodies raised against the different Aβ peptides. Potential cytotoxic effects of the compounds were assayed by measuring the ATP content (ViaLight) from cell lysate.

| IC50 (Aβ42 [2]) [nM] | Structure (SMILES) | IC50 (Aβ42 [1]) [nM] |
| --- | --- | --- |
| 63.1 | COc1cc(Nc2nc(COCCC(F)(F)F)cc(C(C)(C)O)n2)ccc1-n1cnc(C)c1 [Example 18, 2-(2-(3-Methoxy-4-(4-methyl-1H-imidazol-1-yl)phenylamino)-6-((3,3,3-trifluoropropoxy)-methyl)pyrimidin-4-yl)propan-2-ol] | 100 |
| 200 | COc1cc(Nc2nc(COCC3CC(F)(F)C3)cc(C(C)(C)O)n2)ccc1-c1cnnc(C)c1 [Example 19, 2-(6-(((3,3-Difluorocyclobutyl)methoxy)methyl)-2-(3-methoxy-4-(6-methylpyridazin-4-yl)phenylamino)pyrimidin-4-yl)propan-2-ol] | – |
| 39.8 | COc1cc(Nc2nc(COCC(F)(F)F)cc(N3CCC3)n2)ccc1-n1cnc(C)c1 [Example 20, 4-(Azetidin-1-yl)-N-(3-methoxy-4-(4-methyl-1H-imidazol-1-yl)phenyl)-6-((2,2,2-trifluoroethoxy)methyl)pyrimidin-2-amine] | 100 |
| 126 | COc1cc(Nc2nc(COCC(F)(F)F)cc(N3CCC3)n2)ccc1-c1cnnc(C)c1 [Example 21, 4-(Azetidin-1-yl)-N-(3-methoxy-4-(6-methylpyridazin-4-yl)phenyl)-6-((2,2,2-trifluoroethoxy)methyl)pyrimidin-2-amine] | 50.1 |
| 79.4 | COc1cc(Nc2nc(COCC(F)(F)F)cc(N3CCC(F)(F)CC3)n2)ccc1-c1cnnc(C)c1 [Example 22, 4-(4,4-Difluoropiperidin-1-yl)-N-(3-methoxy-4-(6-methylpyridazin-4-yl)phenyl)-6-((2,2,2-trifluoroethoxy)methyl)pyrimidin-2-amine] | 63.1 |
| 79.4 | COc1cc(Nc2nc(COCC(F)(F)F)cc(NC(C)C)n2)ccc1-c1cnnc(C)c1 [Example 23, N^4-Isopropyl-N^2-(3-methoxy-4-(6-methylpyridazin-4-yl)phenyl)-6-((2,2,2-trifluoroethoxy)-methyl)pyrimidine-2,4-diamine] | 79.4 |
| 100 | CNc1cc(COCC(F)(F)F)nc(Nc2ccc(-c3cnnc(C)c3)c(OC)c2)n1 [Example 24, N^2-(3-Methoxy-4-(6-methylpyridazin-4-yl)phenyl)-N^4-methyl-6-((2,2,2-trifluoroethoxy)-methyl)pyrimidine-2,4-diamine] | 79.4 |
| 158 | COc1cc(Nc2nc(COCC(F)(F)F)cc(CN(C)C)n2)ccc1-n1cnc(C)c1 [Example 41, 4-((Dimethylamino)methyl)-N-(3-methoxy-4-(4-methyl-1H-imidazol-1-yl)phenyl)-6-((2,2,2-trifluoroethoxy)methyl)pyrimidin-2-amine] | – |

Further lines, the compound ahead of its results:

| Structure (SMILES) | IC50 (Aβ42 [2]) [nM] | IC50 (Aβ42 [1]) [nM] |
| --- | --- | --- |
| COc1cc(Nc2nc(COCC3CC3)cc(N3CCC3)n2)ccc1-n1cnc(C)c1 [Example 1, 4-(Azetidin-1-yl)-6-((cyclopropylmethoxy)methyl)-N-(3-methoxy-4-(4-methyl-1H-imidazol-1-yl)phenyl)pyrimidin-2-amine] | 20 | 50.1 |
| CNc1cc(COCC(F)(F)F)nc(Nc2ccc(-n3cnc(C)c3)cc2)n1 [Example 2, N^4-Methyl-N^2-(4-(4-methyl-1H-imidazol-1-yl)phenyl)-6-((2,2,2-trifluoroethoxy)methyl)-pyrimidine-2,4-diamine] | 31.6 | 63.1 |
| COc1cc(Nc2nc(CC#N)cc(COCC(F)(F)F)n2)ccc1-n1cnc(C)c1 [Example 3, 2-[2-[3-Methoxy-4-(4-methylimidazol-1-yl)anilino]-6-(2,2,2-trifluoroethoxymethyl)pyrimidin-4-yl]acetonitrile] | 25.1 | 39.8 |
| CNc1nc(Nc2ccc(-n3cnc(C)c3)c(OC)c2)nc(COCC(F)(F)F)c1C [Example 4, N^2-(3-Methoxy-4-(4-methyl-1H-imidazol-1-yl)phenyl)-N^4,5-dimethyl-6-((2,2,2-trifluoroethoxy)methyl)pyrimidine-2,4-diamine] | 25.1 | 10 |
| COc1cc(Nc2nc(COCC(F)(F)F)c(C)c(C(C)(C)O)n2)ccc1-n1cnc(C)c1 [Example 5, 2-(2-(3-Methoxy-4-(4-methyl-1H-imidazol-1-yl)phenylamino)-5-methyl-6-((2,2,2-trifluoroethoxy)methyl)pyrimidin-4-yl)propan-2-ol] | 20 | 20 |
| COc1cc(Nc2nc(COCC(F)(F)F)c(C)c(C(C)O)n2)ccc1-n1cnc(C)c1 (centres unmarked) [Example 6, 1-(2-(3-Methoxy-4-(4-methyl-1H-imidazol-1-yl)phenylamino)-5-methyl-6-((2,2,2-trifluoroethoxy)methyl)pyrimidin-4-yl)ethanol] | 31.6 | 31.6 |
| COc1cc(Nc2nc(C(C)O)cc(C(C)OCC(F)(F)F)n2)ccc1-n1cnc(C)c1 (centres unmarked) [Example 7, 1-(2-(3-Methoxy-4-(4-methyl-1H-imidazol-1-yl)phenylamino)-6-(1-(2,2,2-trifluoroethoxy)-ethyl)pyrimidin-4-yl)ethanol] | 31.6 | 31.6 |
| COc1cc(Nc2nc(COCC(F)(F)F)cc(NC(C)C)n2)ccc1-n1cnc(C)c1 [Example 8, N^4-Isopropyl-N^2-(3-methoxy-4-(4-methyl-1H-imidazol-1-yl)phenyl)-6-((2,2,2-trifluoroethoxy)methyl)pyrimidine-2,4-diamine] | 31.6 | 20 |
| CNc1cc(COCC(F)(F)F)nc(Nc2ccc(-n3cnc(C)c3)c(OC)c2)n1 [Example 9, N^2-(3-Methoxy-4-(4-methyl-1H-imidazol-1-yl)phenyl)-N4-methyl-6-((2,2,2-trifluoroethoxy)methyl)pyrimidine-2,4-diamine] | 25.1 | 31.6 |
| COc1cc(Nc2nc(CO)cc(COCC(F)(F)F)n2)ccc1-n1cnc(C)c1 [Example 10, (2-(3-Methoxy-4-(4-methyl-1H-imidazol-1-yl)phenylamino)-6-((2,2,2-trifluoroethoxy)methyl)pyrimidin-4-yl)methanol] | 63.1 | 31.6 |
| COc1cc(Nc2nc(C(C)OCC(F)(F)F)cc(C(C)(C)O)n2)ccc1-n1cnc(C)c1 (centres unmarked) [Example 11, 2-(2-(3-Methoxy-4-(4-methyl-1H-imidazol-1-yl)phenylamino)-6-(1-(2,2,2-trifluoroethoxy)ethyl)pyrimidin-4-yl)propan-2-ol] | 25.1 | 50.1 |
| COc1cc(Nc2nc(COCC(F)(F)F)cc(C(O)C(F)(F)F)n2)ccc1-n1cnc(C)c1 (centres unmarked) [Example 12, 2,2,2-Trifluoro-1-(2-(3-methoxy-4-(4-methyl-1H-imidazol-1-yl)phenylamino)-6-((2,2,2-trifluoroethoxy)methyl)pyrimidin-4-yl)ethanol] | 79.4 | 39.8 |
| COc1cc(Nc2nc(COCC(F)(F)F)cc(C(O)CC3CC3)n2)ccc1-n1cnc(C)c1 (centres unmarked) [Example 13, 2-Cyclopropyl-1-(2-(3-methoxy-4-(4-methyl-1H-imidazol-1-yl)phenylamino)-6-((2,2,2-trifluoroethoxy)methyl)pyrimidin-4-yl)ethanol] | 20 | 50.1 |
| COc1cc(Nc2nc(COCC(F)(F)F)cc(C(O)C(C)C)n2)ccc1-n1cnc(C)c1 (centres unmarked) [Example 14, 1-(2-(3-Methoxy-4-(4-methyl-1H-imidazol-1-yl)phenylamino)-6-((2,2,2-trifluoroethoxy)methyl)pyrimidin-4-yl)-2-methylpropan-1-ol] | – | 39.8 |
| COc1cc(Nc2nc(COCC(F)(F)F)cc(C(C)(C)O)n2)ccc1-n1cnc(C)c1 [Example 15, 2-(2-(3-Methoxy-4-(4-methyl-1H-imidazol-1-yl)phenylamino)-6-((2,2,2-trifluoroethoxy)-methyl)pyrimidin-4-yl)propan-2-ol] | 31.6 | 50.1 |
| COc1cc(Nc2nc(COCC3CC3)cc(COCC(F)(F)F)n2)ccc1-n1cnc(C)c1 [Example 16, 4-((Cyclopropylmethoxy)methyl)-N-(3-methoxy-4-(4-methyl-1H-imidazol-1-yl)phenyl)-6-((2,2,2-trifluoroethoxy)methyl)pyrimidin-2-amine] | 50.1 | 79.4 |
| COc1cc(Nc2nc(COCC3CC(F)(F)C3)cc(C(C)(C)O)n2)ccc1-n1cnc(C)c1 [Example 17, 2-(6-(((3,3-Difluorocyclobutyl)methoxy)methyl)-2-(3-methoxy-4-(4-methyl-1H-imidazol-1-yl)phenylamino)pyrimidin-4-yl)propan-2-ol] | 200 | 200 |
